Tests used:
[1] = biological target: Cbl-b (Homo sapiens (Human), UniProt Q13191); experiment: Cbl-b LCK Ub TR-FRET assay (Cbl-b Lck HTRF); assay type: biochemical
Method: Compounds were 3-fold serially diluted in DMSO in a 384-well polypropylene plate (#P-05525-BC; Labcyte) to generate a source plate with 10 concentrations of each compound, top concentration=2 mM. 80 nL of DMSO or compounds were transferred to each well of a black 384-well ProxiPlate (#6008260; PerkinElmer) using a Labcyte Echo. 1×assay buffer (50 mM HEPES pH7.0, 100 mM NaCl, 0.01% BSA, 0.01% Triton-X100, 1 mM DTT), 2×enzyme solution (16 nM Biotin-Cbl-b or 12 nM Biotin-c-Cbl in 1× assay buffer), 2×kinase mixture (120 nM His-LCK, 1 mM ATP, 10 mM MgCl2 in assay buffer) and 2.33×detection mixture (4.66×solution 1: 163 nM Anti-HA-D2 antibody (#610HADAB; PerkinElmer), 27.96 nM Streptavidin-EU (#AD0062; PerkinElmer), 1.398 mM EDTA in 1×assay buffer+4.66×solution 2: 2.796 μM UBE2D2/Methylated-HA-Ubiquitin thioester adduct (BostonBiochem) in 1×assay buffer) were prepared. 4 μL of 2× enzyme solution was added to each well containing compound, briefly centrifuged to mix, and incubated for 60 min at room temperature. 4 μL of 2× kinase mixture was added, briefly centrifuged to mix, and incubated for 90 min. at room temperature. 6 μL of detection mixture was added to all wells and briefly centrifuged before incubating for 20 min at room temperature. Plates were read for TR-FRET using an Envision at excitation 340 nm, emission at 615 and 665 nm, 4 flashes per well. IC50 was generated using no LCK as the low control and DMSO as the high control.
Cbl-b Lck HTRF data in Table 7 is measured according to Example 76 herein; C-cbl Lck HTRF data is measured according to Example 76 herein.

[2] = biological target: c-Cbl (Homo sapiens (Human), UniProt P22681); experiment: C-Cbl LCK Ub TR-FRET assay (c-cbl Lck HTRF); assay type: biochemical; details: for (fold-selectivity): C-cbl Lck HTRF IC50 relative to Cbl-b Lck HTRF IC50
Chain of c-Cbl (P22681 47-435): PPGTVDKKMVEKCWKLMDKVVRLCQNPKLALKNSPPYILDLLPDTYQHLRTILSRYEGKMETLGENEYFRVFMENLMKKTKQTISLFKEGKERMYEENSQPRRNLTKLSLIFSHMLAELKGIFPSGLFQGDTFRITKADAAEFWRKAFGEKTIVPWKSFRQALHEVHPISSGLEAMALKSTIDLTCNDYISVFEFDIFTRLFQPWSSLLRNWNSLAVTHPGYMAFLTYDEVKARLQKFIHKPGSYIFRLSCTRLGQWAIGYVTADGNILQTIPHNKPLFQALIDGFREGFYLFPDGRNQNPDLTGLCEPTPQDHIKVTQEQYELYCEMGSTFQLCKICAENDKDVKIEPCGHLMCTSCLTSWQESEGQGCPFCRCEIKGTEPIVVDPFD
Method: 6 μL of detection mixture was added to all wells and briefly centrifuged before incubating for 20 min at room temperature. […] IC50 was generated using no LCK as the low control and DMSO as the high control.

Chain of Cbl-b (Q13191 40-426): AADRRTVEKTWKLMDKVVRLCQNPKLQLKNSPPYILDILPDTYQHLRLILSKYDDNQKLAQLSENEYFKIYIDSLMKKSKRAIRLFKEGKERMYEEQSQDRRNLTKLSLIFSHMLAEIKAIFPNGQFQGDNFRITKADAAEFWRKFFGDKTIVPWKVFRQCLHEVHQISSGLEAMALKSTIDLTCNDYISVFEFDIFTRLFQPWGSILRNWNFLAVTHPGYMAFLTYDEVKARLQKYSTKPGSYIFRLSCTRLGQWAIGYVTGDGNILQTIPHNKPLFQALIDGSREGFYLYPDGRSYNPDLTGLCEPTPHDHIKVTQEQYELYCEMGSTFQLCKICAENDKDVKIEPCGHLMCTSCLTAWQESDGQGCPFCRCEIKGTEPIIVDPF

| Compound | IC50 [1] | IC50 [2] | (fold-selectivity) [2] |
| --- | --- | --- | --- |
| Cn1cnnc1[C@H](F)C1(c2cccc(N3Cc4c(cc(CN5CC(C)(CF)C5)cc4C(F)(F)F)C3=O)c2)COC1 [Compound 76, (R)-2-(3-(3-(fluoro(4-methyl-4H-1,2,4-triazol-3-yl)methyl)oxetan-3-yl)phenyl)-6-((3-(fluoromethyl)-3-methylazetidin-1-yl)methyl)-4-(trifluoromethyl)isoindolin-1-one] | 52 nM | 82 nM | 1.6x |
| Cn1cnnc1[C@@H](F)C1(c2cccc(N3Cc4c(cc(CN5CC(C)(CF)C5)cc4C(F)(F)F)C3=O)c2)COC1 [Compound 77, (S)-2-(3-(3-(fluoro(4-methyl-4H-1,2,4-triazol-3-yl)methyl)oxetan-3-yl)phenyl)-6-((3-(fluoromethyl)-3-methylazetidin-1-yl)methyl)-4-(trifluoromethyl)isoindolin-1-one] | 210 nM | 370 nM | 1.8x |
| Cn1cnnc1[C@H](F)C1(c2cccc(N3Cc4c(cc(CN5CC6(CC6)C5)cc4C(F)(F)F)C3=O)c2)COC1 [Compound 78, (R)-6-((5-azaspiro[2.3]hexan-5-yl)methyl)-2-(3-(3-(fluoro(4-methyl-4H-1,2,4-triazol-3-yl)methyl)oxetan-3-yl)phenyl)-4-(trifluoromethyl)isoindolin-1-one] | 53 nM | 79 nM | 1.5x |
| Cn1cnnc1[C@@H](F)C1(c2cccc(N3Cc4c(cc(CN5CC6(CC6)C5)cc4C(F)(F)F)C3=O)c2)COC1 [Compound 79] | 170 nM | 270 nM | 1.6x |
| Cn1cnnc1[C@H](F)C1(c2cccc(N3Cc4c(cc(CN5CC[C@@H](F)C5)cc4C(F)(F)F)C3=O)c2)COC1 [Compound 80, 2-(3-(3-((R)-fluoro(4-methyl-4H-1,2,4-triazol-3-yl)methyl)oxetan-3-yl)phenyl)-6-(((R)-3-fluoropyrrolidin-1-yl)methyl)-4-(trifluoromethyl)isoindolin-1-one] | 110 nM | 290 nM | 2.6x |
| Cn1cnnc1[C@@H](F)C1(c2cccc(N3Cc4c(cc(CN5CC[C@@H](F)C5)cc4C(F)(F)F)C3=O)c2)COC1 [Compound 81, 2-(3-(3-((S)-fluoro(4-methyl-4H-1,2,4-triazol-3-yl)methyl)oxetan-3-yl)phenyl)-6-(((R)-3-fluoropyrrolidin-1-yl)methyl)-4-(trifluoromethyl)isoindolin-1-one] | 270 nM | 750 nM | 2.8x |
| Cn1cnnc1[C@H](F)C1(c2cccc(N3Cc4c(cc(CN5CC[C@H](F)C5)cc4C(F)(F)F)C3=O)c2)COC1 [Compound 82, 2-(3-(3-((R)-fluoro(4-methyl-4H-1,2,4-triazol-3-yl)methyl)oxetan-3-yl)phenyl)-6-(((S)-3-fluoropyrrolidin-1-yl)methyl)-4-(trifluoromethyl)isoindolin-1-one] | 28 nM | 68 nM | 2.4x |
| Cn1cnnc1[C@@H](F)C1(c2cccc(N3Cc4c(cc(CN5CC[C@H](F)C5)cc4C(F)(F)F)C3=O)c2)COC1 [Compound 83, 2-(3-(3-((S)-fluoro(4-methyl-4H-1,2,4-triazol-3-yl)methyl)oxetan-3-yl)phenyl)-6-(((S)-3-fluoropyrrolidin-1-yl)methyl)-4-(trifluoromethyl)isoindolin-1-one] | 210 nM | 640 nM | 3.1x |
| Cn1cnnc1[C@H](F)C1(c2cccc(N3Cc4c(cc(CN5CC6CC6C5)cc4C(F)(F)F)C3=O)c2)COC1 (stereo partly drawn) [Compound 84, 6-((3-azabicyclo[3.1.0]hexan-3-yl)methyl)-2-(3-(3-((R)-fluoro(4-methyl-4H-1,2,4-triazol-3-yl)methyl)oxetan-3-yl)phenyl)-4-(trifluoromethyl)isoindolin-1-one] | 62 nM | 120 nM | 1.9x |
| Cn1cnnc1[C@@H](F)C1(c2cccc(N3Cc4c(cc(CN5CC6CC6C5)cc4C(F)(F)F)C3=O)c2)COC1 (stereo partly drawn) [Compound 85, 6-((3-azabicyclo[3.1.0]hexan-3 yl)methyl)-2-(3-(3-((S)-fluoro(4-methyl-4H-1,2,4-triazol-3-yl)methyl)oxetan-3-yl)phenyl)-4-(trifluoromethyl)isoindolin-1-one] | 180 nM | 370 nM | 2.0x |
| Cn1cnnc1[C@@H](F)C1(c2cccc(N3Cc4c(cc(CN5CC6CC5C6)cc4C(F)(F)F)C3=O)c2)COC1 [Compound 87, (S)-6-((2-azabicyclo[2.1.1]hexan-2-yl)methyl)-2-(3-(3-(fluoro(4-methyl-4H-1,2,4-triazol-3-yl)methyl)oxetan-3-yl)phenyl)-4-(trifluoromethyl)isoindolin-1-one] | 1200 nM | 3100 nM | 2.6x |
| Cn1cnnc1[C@H](F)C1(c2cccc(N3Cc4c(cc(CN5CCOCC5)cc4C(F)(F)F)C3=O)c2)COC1 [Compound 88, (R)-2-(3-(3-(fluoro(4-methyl-4H-1,2,4-triazol-3-yl)methyl)oxetan-3-yl)phenyl)-6-(morpholinomethyl)-4-(trifluoromethyl)isoindolin-1-one] | 100 nM | 210 nM | 2.1x |
| Cn1cnnc1[C@@H](F)C1(c2cccc(N3Cc4c(cc(CN5CCOCC5)cc4C(F)(F)F)C3=O)c2)COC1 [Compound 89, (S)-2-(3-(3-(fluoro(4-methyl-4H-1,2,4-triazol-3-yl)methyl)oxetan-3-yl)phenyl)-6-(morpholinomethyl)-4-(trifluoromethyl)isoindolin-1-one] | 310 nM | 720 nM | 2.3x |

Continued, values first:

| IC50 [1] | IC50 [2] | (fold-selectivity) [2] | Compound |
| --- | --- | --- | --- |
| 42 nM | 58 nM | 1.4x | CC(C)[C@H]1CN(Cc2cc3c(c(C(F)(F)F)c2)CN(c2cccc(C4([C@@H](F)c5nncn5C)COC4)c2)C3=O)CCN1 [Compound 90, 2-(3-(3((R)-fluoro(4-methyl-4H-1,2,4-triazol-3-yl)methyl)oxetan-3-yl)phenyl)-6-(((S)-3-isopropylpiperazin-1-yl)methyl)-4-(trifluoromethyl)isoindolin-1-one] |
| 140 nM | 170 nM | 1.2x | CC(C)[C@H]1CN(Cc2cc3c(c(C(F)(F)F)c2)CN(c2cccc(C4([C@H](F)c5nncn5C)COC4)c2)C3=O)CCN1 [Compound 91] |
| 20 nM | 24 nM | 1.2x | CC(C)[C@@H]1CN(Cc2cc3c(c(C(F)(F)F)c2)CN(c2cccc(C4([C@@H](F)c5nncn5C)COC4)c2)C3=O)CCN1 [Compound 92] |
| 68 nM | 78 nM | 1.1x | CC(C)[C@@H]1CN(Cc2cc3c(c(C(F)(F)F)c2)CN(c2cccc(C4([C@H](F)c5nncn5C)COC4)c2)C3=O)CCN1 [Compound 93, 2-(3-(3-((S)-fluoro(4-methyl-4H-1,2,4-triazol-3-yl)methyl)oxetan-3-yl)phenyl)-6-(((R)-3-isopropylpiperazin-1-yl)methyl)-4-(trifluoromethyl)isoindolin-1-one] |
| 180 nM | 200 nM | 1.1x | CC(C)[C@@H]1CNCCN1Cc1cc2c(c(C(F)(F)F)c1)CN(c1cccc(C3([C@@H](F)c4nncn4C)COC3)c1)C2=O [Compound 94, 2-(3-(3((R)-fluoro(4-methyl-4H-1,2,4-triazol-3-yl)methyl)oxetan-3-yl)phenyl)-6-(((R)-2-isopropylpiperazin-1-yl)methyl)-4-(trifluoromethyl)isoindolin-1-one] |
| 270 nM | 410 nM | 1.5x | CC(C)[C@@H]1CNCCN1Cc1cc2c(c(C(F)(F)F)c1)CN(c1cccc(C3([C@H](F)c4nncn4C)COC3)c1)C2=O [Compound 95, 2-(3-(3-((S)-fluoro(4-methyl-4H-1,2,4-triazol-3-yl)methyl)oxetan-3-yl)phenyl)-6-(((R)-2-isopropylpiperazin-1-yl)methyl)-4-(trifluoromethyl)isoindolin-1-one] |
| 12 nM | 18 nM | 1.5x | CC(C)[C@H]1CNCCN1Cc1cc2c(c(C(F)(F)F)c1)CN(c1cccc(C3([C@@H](F)c4nncn4C)COC3)c1)C2=O [Compound 96, 2-(3-(3((R)-fluoro(4-methyl-4H-1,2,4-triazol-3-yl)methyl)oxetan-3-yl)phenyl)-6-(((S)-2-isopropylpiperazin-1-yl)methyl)-4-(trifluoromethyl)isoindolin-1-one] |

From patent US20250230147A1, “LACTAMS AS CBL-B INHIBITORS” (Genentech, Inc., priority 2021, published 2025)
